This note sets out measurements from patent US10155751B2, “Pyrazolyl-substituted heteroaryls and their use as medicaments” (Boehringer Ingelheim International GmbH, priority 2015, dated 2018).

The target in assay [1] is Recombinant human Aurora B (amino acids 1-344) (Homo sapiens (Human), UniProt Q96GD4). As to the kind of experiment: Aurora B kinase test (ADP Glo). The format is biochemical. The settings on record: for IC50: read-out: AURB inhibition IC50-value (chapter 5.3). The protocol:
The activity of the Aurora B kinase protein was determined using the ADP Glo® Luminescence Kinase test (Promega; V9103X). In this homogeneous test the amount of ADP remaining after the kinase reaction is quantified by a luciferin-luciferase reaction using luminescence. The luminescence signal obtained correlates with the amount of ADP still present and thus correlates with the activity of the protein kinase.
The test compounds were dissolved in 100% DMSO at a concentration of 10 mM and diluted in DMSO to a concentration of 5 mM. Serial Dilution is done in 1:10 steps in 100% DMSO. All further dilutions of the substances were carried out with test buffer (50 mM Hepes, pH 7.5, 10 mM MgCl2, 1 mM EGTA, 60 μM Ultra Pure ATP, 0.01% Brij35, 0.1% BSA, 5 mM 8-Glycerophosphate) until a concentration was reached which was 2.5 times above the final test concentration (final concentration of the compounds: 50 μM to 0.005 nM). 4 μl aliquots of these dilutions were transferred into a 384-well Optiplate (Perkin Elmer, #6007290). His-Aurora B was diluted to 125 nM in the test buffer and 4 μl of this dilution were used in the kinase test (final concentration of Aurora B=50 nM in a total volume of 10 μl). After 15 minutes incubation at room temperature 2 μl of 250 μM substrate ([[…]]; University of Dundee) in test buffer were added to each well and the incubation was continued for a further 60 minutes at room temperature.
(§1) Positive controls are the reaction mixtures that contain no test substance; negative controls (blanks) are reaction mixtures that contain no kinase.
After 60 minutes, 10 μl ADP-Glo® solution (ADP-Glo Reagent #V912B Promega) (heated to room temperature) were added to each well and incubation was continued for a further 40. minutes. Then 20 μl Kinase detection mix (Detection Buffer #V913B Promega; Kinase Detection Substrate #V914B Promega) were added and incubated for 40 minutes at room temperature. The plates were read in Envision Luminescence Reader (Perkin-Elmer).
(§2) The output file of the reader is a csv file that contains the well number and measured RLU. For data evaluation and calculation, the measurement of the negative control was set as 0% ctrl and the measurement of the positive control was set as 100% ctrl. Based on this values the % value for the measurement of each substance concentration can be calculated using an Assay Explorer software (e.g. Accelrys). Normally, the % ctrl values calculated are between 0% and 100% values but may also occur outside these limits in individual cases based on variability or compound characteristics. The IC50-values were calculated from the % ctrl values using Assay Explorer software. Calculation: [y=(a−d)/(1+(x/c)^b)+d], a=low value, d=high value; x=conc M; c=IC50 M; b=hill; y=% ctrl.
A general note: ADP-Glo first removes unused ATP, then detects ADP through luciferase.

Assay [2] concerns the target Recombinant human SYK (amino acids 342-635), GST-SYK kinase fusion protein (Homo sapiens (Human), UniProt P43405). Nature of the assay: SYK kinase inhibition test (Kinase Glo luminescence). The settings on record: read-out: SYK inhibition IC50-value (chapter 5.1). The format is biochemical. The protocol: The catalytic activity of the GST-SYK kinase fusion protein was determined using the Kinase Glo® Luminescence Kinase test (Promega; V6712). In this homogeneous test the amount of ATP remaining after the kinase reaction is quantified by a luciferin-luciferase reaction using luminescence. The luminescence signal obtained correlates with the amount of ATP still present and thus correlates inversely with the activity of the kinase.
The test compounds were dissolved in 100% DMSO at a concentration of 10 mM and diluted in DMSO to a concentration of 1 mM. Serial Dilution is done in 100% DMSO. All further dilutions of the substances were carried out with test buffer (25 mM HEPES pH7.5; 25 mM MgCl2; 5 mM MnCl2; 50 mM KCl; 0.2% HSA; 0.01% CHAPS; 100 μM Na3VO4; 0.5 mM DTT). Dilution steps and concentration range were adapted according to need. 7 μl aliquots of these dilutions were transferred into a 384-well Optiplate (Perkin Elmer, #6007290). GST-SYK was diluted to 12 nM in the test buffer and 5 μl of this dilution were used in the kinase test (final concentration of SYK=4 nM in a total volume of 15 μl). After 15 minutes incubation at room temperature 3 μl of a mixture of 750 nM ATP and 100 μg/ml poly (L-Glutamic acid L-Tyrosine 4:1), Fluka #81357) in test buffer were added to each well and the incubation was continued for a further 60 minutes at room temperature.
as §1
After 60 minutes, 10 μl Kinase-Glo® solution (Promega, Cat. # V6712) (heated to room temperature) were added to each well and incubation was continued for a further 15 minutes. The plates were read in Envision Luminescence Reader (Perkin-Elmer).
as §2, with “measured relative light units (RLU).” for “measured RLU.”, “as 100%” for “as 0%”, “as 0%” for “as 100%”, “concentration was” for “concentration can be”, “software (Accelrys).” for “software (e.g. Accelrys).”, “Calculation: [y=(a−d)/(1+(x/c)^b)+d]” for “Calculation: [y=(a−d)/(1+(x/c)^b)+d],”
Satisfying SYK inhibitory capacities are represented by an IC50(SYK)-Value measured by this assay of <10 nMol.
In general terms: Kinase-Glo measures the ATP left after a reaction by luminescence.

One may read the IC50 as the concentration that gives 50% inhibition.

Recombinant human Aurora B (amino acids 1-344), sequence (Q96GD4 whole entry, the tested form may be a part): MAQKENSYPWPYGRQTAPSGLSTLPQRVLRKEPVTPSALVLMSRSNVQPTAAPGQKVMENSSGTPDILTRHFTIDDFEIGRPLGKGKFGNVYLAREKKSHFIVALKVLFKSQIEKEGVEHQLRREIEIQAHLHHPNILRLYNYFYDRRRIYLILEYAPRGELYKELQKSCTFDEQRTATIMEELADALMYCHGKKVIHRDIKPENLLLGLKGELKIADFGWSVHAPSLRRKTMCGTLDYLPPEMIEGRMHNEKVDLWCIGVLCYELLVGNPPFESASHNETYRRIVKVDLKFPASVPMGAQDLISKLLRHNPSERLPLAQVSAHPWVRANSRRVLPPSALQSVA

Take `C[C@@H](Oc1cc(-c2cnn(C3CCC3)c2)cc2nn(C)c(F)c12)[C@H]1CNC(=O)C1` [Example 1, (R)-4-{(R)-1-[6-(1-Cyclobutyl-1H-pyrazol-4-yl)-3-fluoro-2-methyl-2H-indazol-4-yloxy]-ethyl}-pyrrolidin-2-one]: in assay [1], the “selectivity ratio IC50(AURB)/IC50(SYK)” value came to 34800 and the IC50 came out at 34.8 µM. For the same molecule, the 50% inhibitory concentration (IC50) in assay [2] turned out to be 0.001 µM.

Consider `CC(C)n1cc(-c2cc(O[C@H](C)[C@H]3CNC(=O)C3)c3c(F)n(C)nc3c2)cn1` [Example 2, (R)-4-{(R)-1-[3-Fluoro-6-(1-isopropyl-1H-pyrazol-4-yl)-2-methyl-2H-indazol-4-yloxy]-ethyl}-pyrrolidin-2-one], for which the “selectivity ratio IC50(AURB)/IC50(SYK)” value in assay [1] came to 23955. In addition, the half-inhibitory concentration (IC50) in assay [1] is 31.1 µM; in assay [2] it was 0.0013 µM.

With `Cc1c2c(O[C@H](C)[C@H]3CNC(=O)O3)nc(-c3cnn(C(C)(C)C)c3)cc2nn1C` [Example 3, (R)-5-{(R)-1-[6-(1-tert-Butyl-1H-pyrazol-4-yl)-2,3-dimethyl-2H-pyrazolo[4,3-c]pyridin-4-yloxy]-ethyl}-oxazolidin-2-one], in assay [1], the “selectivity ratio IC50(AURB)/IC50(SYK)” value is recorded as 15731 and the half-maximal inhibitory concentration (IC50) amounted to 31.5 µM. Also, the IC50 in assay [2] was found to be 0.002 µM.

Take `Cc1c2c(O[C@H](C)[C@H]3CNC(=O)C3)nc(-c3c[nH]nc3C(C)(C)C)cc2nn1C` [Example 4, (R)-4-{(R)-1-[6-(3-tert-Butyl-1H-pyrazol-4-yl)-2,3-dimeth-yl-2H-pyrazolo[4,3-c]pyridin-4-yloxy]-ethyl}-pyrrolidin-2-one]: in assay [1], the “selectivity ratio IC50(AURB)/IC50(SYK)” value amounted to 29636 and the IC50 amounted to 65.2 µM. In assay [2], the concentration for half-maximal inhibition (IC50) stood at 0.0022 µM.

On to `C[C@@H](Oc1cc(-c2cnn(C3CC3)c2)cc2nn(C)c(F)c12)[C@H]1CNC(=O)C1` [Example 5, (R)-4-{(R)-1-[6-(1-Cycloprop-yl-1H-pyrazol-4-yl)-3-fluoro-2-methyl-2H-indazol-4-yloxy]-ethyl}-pyrrolidin-2-one], for which, in assay [1], the “selectivity ratio IC50(AURB)/IC50(SYK)” value is 15152 and the concentration for half-maximal inhibition (IC50) worked out at 50 µM. In assay [2], the IC50 worked out at 0.0033 µM.

As to `C[C@@H](Oc1cc(-c2cnn(CC3CC3)c2)cc2nn(C)c(F)c12)[C@H]1CNC(=O)C1` [Example 6, (R)-4-{(R)-1-[6-(1-Cycloprop-ylmethyl-1H-pyrazol-4-yl)-3-fluoro-2-methyl-2H-indazol-4-yloxy]-ethyl}-pyrrolidin-2-one], in assay [1], the “selectivity ratio IC50(AURB)/IC50(SYK)” value amounted to 13115 and the IC50 was 34.1 µM. For the same molecule, in assay [2], the 50% inhibitory concentration (IC50) came out at 0.0026 µM.

With `C[C@@H](Oc1cc(-c2cnn(C3CCC(F)(F)C3)c2)cc2nn(C)c(F)c12)[C@H]1CNC(=O)C1` (stereo partly drawn) [Example 7], in assay [1], the “selectivity ratio IC50(AURB)/IC50(SYK)” value is 20154 and the half-maximal inhibitory concentration (IC50) came out at 26.2 µM. Also, the IC50 in assay [2] is 0.0013 µM.

As for `Cc1c2c(O[C@H](C)[C@H]3CNC(=O)C3)cc(-c3cnn(CC4CC4)c3)cc2nn1C` [Example 8, (R)-4-{(R)-1-[6-(1-Cyclopropylmethyl-1H-pyrazol-4-yl)-2,3-dimethyl-2H-indazol-4-yloxy]-ethyl}-pyrrolidin-2-one], in assay [1], the “selectivity ratio IC50(AURB)/IC50(SYK)” value worked out at 15080 and the concentration for half-maximal inhibition (IC50) turned out to be 21.1 µM. The IC50 in assay [2] came to 0.0014 µM.

Consider `Cc1c2c(O[C@H](C)[C@H]3CNC(=O)C3)cc(-c3cnn([C@@H]4CCOC(C)(C)C4)c3)cc2nn1C` [Example 9, (R)-4-((R)-1-{6-[1-((R)-2,2-Dimethyl-tetrahydro-pyran-4-yl)-1H-pyrazol-4-yl]-2,3-dimethyl-2H-indazol-4-yloxy}-ethyl)-pyrrolidin-2-one], for which, in assay [1], the “selectivity ratio IC50(AURB)/IC50(SYK)” value was 21219 and the concentration for half-maximal inhibition (IC50) was 23.3 µM. Further, in assay [2], the half-maximal inhibitory concentration (IC50) was found to be 0.0011 µM.

With `Cc1c2c(O[C@H](C)[C@H]3CNC(=O)C3)cc(-c3cnn([C@H]4CO[C@@H]5CCCO[C@@H]54)c3)cc2nn1C` [Example 10, 4-(1-{6-[(R)-(3S,3aR,7aR)-1-(Hexahydro-furo[3,2-b]pyran-3-yl)-1H-pyrazol-4-yl]-2,3-dimethyl-2H-indazol-4-yloxy}-ethyl)-pyrrolidin-2-one], in assay [1], the “selectivity ratio IC50(AURB)/IC50(SYK)” value is given as 10312. The IC50 was 34 µM in assay [1] and 0.0033 µM in assay [2].

As to `Cc1c2c(O[C@H](C)[C@H]3CNC(=O)C3)cc(-c3cnn(CCF)c3)cc2nn1C` [Example 11, (R)-4-((R)-1-{6-[1-(2-Fluoro-ethyl)-1H-pyrazol-4-yl]-2,3-dimethyl-2H-indazol-4-yloxy}-ethyl)-pyrrolidin-2-one], the “selectivity ratio IC50(AURB)/IC50(SYK)” value in assay [1] was 20800. Further, the half-maximal inhibitory concentration (IC50) in assay [1] was determined as 31.2 µM; in assay [2] it was 0.0015 µM.

For `C[C@@H](Oc1cc(-c2cnn(CCC(F)(F)F)c2)cc2nn(C)c(F)c12)[C@H]1CNC(=O)C1` [Example 12, (R)-4-((R)-1-{3-Fluoro-2-methyl-6-[1-(3,3,3-trifluoro-propyl)-1H-pyrazol-4-yl]-2H-indazol-4-yloxy}-ethyl)-pyrrolidin-2-one], in assay [1], the “selectivity ratio IC50(AURB)/IC50(SYK)” value stood at 10207 and the half-inhibitory concentration (IC50) turned out to be 29.6 µM. Moreover, in assay [2], the half-maximal inhibitory concentration (IC50) is 0.0029 µM.

Turning to `Cc1c2c(O[C@H](C)[C@H]3CNC(=O)C3)cc(-c3cnn(C(C)(C)C)c3)cc2nn1C` [Example 13, (R)-4-{(R)-1-[6-(1-tert-Butyl-1H-pyrazol-4-yl)-2,3-dimethyl-2H-indazol-4-yloxy]-ethyl}-pyrrolidin-2-one], the “selectivity ratio IC50(AURB)/IC50(SYK)” value in assay [1] is recorded as 39982. Moreover, the 50% inhibitory concentration (IC50) in assay [1] is 36 µM; in assay [2], 0.0009 µM.

On to `C[C@@H](Oc1cc(-c2cnn(C3CC(C)(C)OC3(C)C)c2)cc2nn(C)c(F)c12)[C@H]1CNC(=O)C1` (stereo partly drawn) [Example 14, (R)-4-((R)-1-{3-Fluoro-2-methyl-6-[1-(2,2,5,5-tetramethyl-tetrahydro-furan-3-yl)-1H-pyrazol-4-yl]-2H-indazol-4-yloxy}-ethyl)-pyrrolidin-2-one], for which, in assay [1], the “selectivity ratio IC50(AURB)/IC50(SYK)” value is listed as 15625 and the IC50 was 50 µM. Moreover, the IC50 in assay [2] was 0.0032 µM.

On to `Cc1c2c(O[C@H](C)[C@H]3CNC(=O)C3)cc(-c3cnn(C4CC(C)(C)OC4(C)C)c3)cc2nn1C` (stereo partly drawn) [Example 16, (R)-4-((R)-1-{2,3-Dimethyl-6-[1-(2,2,5,5-tetramethyl-tetrahydro-furan-3-yl)-1H-pyrazol-4-yl]2H-indazol-4-yloxy}-ethyl)-pyrrolidin-2-one], for which the “selectivity ratio IC50(AURB)/IC50(SYK)” value in assay [1] was determined as 14323. In addition, the 50% inhibitory concentration (IC50) in assay [1] came out at 44.4 µM; in assay [2] it was 0.0031 µM.
